The term TGI denotes the concentration giving total growth inhibition. Low readings indicate greater sensitivity of the cells, high ones lower sensitivity of the cells. Broadly, the IC50 is the point on the concentration scale where inhibition reaches its midpoint. A high value points to a need for much substance.

The test system of one series is OVCAR-3. Nature of the series: Human cancer cell line growth inhibition, Ovarian OVCAR-3. The format is cell-based. Conditions: Ovarian OVCAR-3, 48 hours. The protocol: (§1) Cancer Inst. […] Cancer Inst. Reports, Vol 81, No. 14, Page 1088, Jul.
(§2) The only difference is historical usage.
(§3) Percent Growths are calculated for each dose.
(§4) This is the "baseline count" or "Tzero reading".

In a further series the test system is SF-2X5. The experiment in a line: Human cancer cell line growth inhibition, CNS SF-2X5. Format: cell-based. Conditions: CNS SF-2X5, 48 hours. Here is the method:
as §1, §2, §3, §4

A further series relates to A4X8. The experiment in a line: Human cancer cell line growth inhibition, Renal A4X8. Conditions: Renal A4X8, 48 hours. The format is cell-based. Here is the method:
as §1, §2, §3, §4

The subject of the next series is NCI-H460. Nature of the series: Human cancer cell line growth inhibition, Lung-NSC NCI-H460. The format is cell-based. Conditions: Lung-NSC NCI-H460, 48 hours. Here is the method:
as §1, §2, §3, §4

In a further series the test system is KM20L2. Nature of the series: Human cancer cell line growth inhibition, Colon KM20L2. The format is cell-based. Conditions: Colon KM20L2, 48 hours. Here is the method: as §1, §2, §3, §4
The subject of another series is SK-MEL-5. Nature of the series: Human cancer cell line growth inhibition, Melanoma SK-MEL-5. Format: cell-based. The settings on record: Melanoma SK-MEL-5, 48 hours. Here is the method: as §1, §2, §3, §4
Series [1] has as its system PS-388 Leukemia cell line. Nature of the series: PS-388 mouse leukemia cell line growth inhibition. Format: cell-based. The settings on record: Mouse Leukemia PS-388, 48 hours. The protocol: as §2, §3, §4
Series [2] deals with L1210 murine leukemia cells. The experiment in a line: Activity against L1210 murine leukemia cells (IC50). Format: cell-based. An excerpt: A molecule (22c) was designed based on the conformational similarities with (6R)-isodolastatin 10 (See FIGS. 1a and 1b). The molecule was then synthesized by the procedure outlined in this application.
The subject of series [3] is P388 Lymphocytic Leukemia. The experiment in a line: Murine in vivo system: P388 Lymphocytic Leukemia, T/C. An excerpt:
(§5) The synthesis of potentially useful peptides presents one of the most essential and promising approaches to new types of anticancer and immunosuppressant drugs. The Dolastatins, an unprecedented series of linear and cyclic antineoplastic and/or cytostatic peptides isolated from Indian Ocean sea hare Dolabella auricularia represent excellent leads for synthetic modification. The very productive sea hare Dolabella auricularia has produced a number of structurally distinct peptides with excellent antineoplastic activity. Presently dolastatin 10, a linear pentapeptide represents the most important member and is a potentially useful antineoplastic agent. […] Recently the total synthesis and absolute configuration of this structurally unique and biologically active peptide was reported.
(§6) Experimental Anticancer Activity of Dolastatin 10 in Murine in vivo Systems, T/C (μg/kg)

The subject of series [4] is L1210 Lymphocytic Leukemia. Nature of the series: Murine in vivo system: L1210 Lymphocytic Leukemia, T/C.
Description: as §5, §6

In the next series the test system is B16 Melanoma. The experiment in a line: Murine in vivo system: B16 Melanoma, T/C.
Description: as §5, §6

The test system of a further series is M5076 Ovary Sarcoma. Nature of the series: Murine in vivo system: M5076 Ovary Sarcoma, T/C.
Description: as §5, §6

The subject of series [5] is LOX Human Melanoma Xenograft. Nature of the series: LOX Human Melanoma Xenograft to Nude Mouse, T/C. Format: in vivo.
Description: as §6
(Xenograft models place foreign cells or tissue in a host animal.)

The subject of another series is Human Mammary Xenograft. Nature of the series: Human Mammary Xenograft Nude Mouse, T/C. The format is in vivo.
Description: as §5, §6

The subject of series [6] is OVCAR-3 Human Ovary Xenograft. Nature of the series: OVCAR-3 Human Ovary Xenograft Nude Mouse, T/C. Format: in vivo. The settings on record: OVCAR-3 xenograft, dose 40 μg/kg.
Description: as §5, §6

The subject of series [7] is MX-1 Human Mammary Xenograft. Nature of the series: MX-1 Human Mammary Xenograft (Tumor Regression), T/C. Format: in vivo, Murine.
Description: as §5, §6

Where [8] appears, read: LOX in separate experiments, dose 9.0 μg/kg.
[9] abbreviates: LOX in separate experiments, dose 26 μg/kg.
[10] abbreviates: LOX in separate experiments, dose 43 μg/kg.

For the compound “Z-Val-Dil-Dap-Phenethylamine [compound 18]”, the GI-50 in the series with OVCAR-3 was 0.051 µg/mL; in the series on SF-2X5 it was 0.14 µg/mL; in the series with A4X8, 0.16 µg/mL; in the series on NCI-H460 it was 0.21 µg/mL; in the series with KM20L2, 0.24 µg/mL; in the series on SK-MEL-5 it was 0.29 µg/mL. The LC-50 was 0.99 µg/mL in the series with OVCAR-3; above 1 µg/mL in the series with SF-2X5; above 1 µg/mL in the series on A4X8; above 1 µg/mL in the series with NCI-H460; above 1 µg/mL in the series with KM20L2; above 1 µg/mL in the series on SK-MEL-5. Also, the TGI is 0.24 µg/mL in the series with OVCAR-3; 0.43 µg/mL with SF-2X5; 0.52 µg/mL in the series on A4X8; 0.66 µg/mL in the series with NCI-H460; 0.67 µg/mL with KM20L2; above 1 µg/mL with SK-MEL-5. This compound also displayed an ED-50 in series [1] above 1 µg/mL.
Regarding “Dov-Val-Dil-Dap methyl ester [compound 21]”, the GI-50 with OVCAR-3 amounted to 0.0035 µg/mL; in the series with SF-2X5 it was 0.0038 µg/mL; in the series with A4X8, 0.02 µg/mL; with NCI-H460, 0.0022 µg/mL; with KM20L2 it was 0.021 µg/mL; with SK-MEL-5 it was 0.0087 µg/mL. Moreover, the LC-50 in the series with OVCAR-3, in the series on SF-2X5, in the series on A4X8, with NCI-H460, with KM20L2 and in the series with SK-MEL-5 was above 1 µg/mL each time. Also, the TGI with OVCAR-3 was 0.026 µg/mL; with SF-2X5, above 0.035 µg/mL; with A4X8 it was above 1 µg/mL; in the series with NCI-H460, 0.021 µg/mL; with KM20L2, 0.23 µg/mL; in the series on SK-MEL-5, above 1 µg/mL. The same compound gave an ED-50 in [1] of 0.0297 µg/mL.
`CC[C@H](C)[C@@H]([C@@H](CC(=O)N1CCC[C@H]1CCC(=O)N[C@@H](CCSC)C(=O)OC)OC)N(C)C(=O)[C@@H](NC(=O)[C@H](C(C)C)N(C)C)C(C)C` [22c, Dov-val-dil-desmethoxy-desmethyl-dolaproine-methionine methyl ester] gave an IC50 in [2] of 4 µM.
For the compound `CC[C@H](C)[C@@H]([C@@H](CC(=O)N1CCC[C@H]1[C@H](OC)[C@@H](C)C(=O)N[C@@H](Cc1ccccc1)c1nccs1)OC)N(C)C(=O)[C@@H](NC(=O)[C@H](C(C)C)N(C)C)C(C)C` [Dolastatin 10], the T/C in series [3] (P388, dose 1.63 μg/kg) was 137; in [3] (P388, dose 3.25 μg/kg), 146; in series [3] (P388, dose 6.5 μg/kg), 155; in [3] (P388, dose 13.0 μg/kg) it was “toxic”; in series [4] (L1210, dose 1.63 μg/kg), 120; in series [4] (L1210, dose 3.25 μg/kg), 139. Also, the T/C in series [4] (L1210, dose 6.5 μg/kg) is 135; in series [4] (L1210, dose 13 μg/kg) it was 152; with B16 Melanoma (B16, dose 1.44 μg/kg), 142; in the series on B16 Melanoma (B16, dose 3.4 μg/kg), 171; with B16 Melanoma (B16, dose 4.0 μg/kg), 205; with B16 Melanoma (B16, dose 6.67 μg/kg) it was 182. For the same compound, the T/C was 238 with B16 Melanoma (B16, dose 11.11 μg/kg); 151 with M5076 Ovary Sarcoma (M5076, dose 3.25 μg/kg); 142 in the series with M5076 Ovary Sarcoma (M5076, dose 6.5 μg/kg); 166 in the series on M5076 Ovary Sarcoma (M5076, dose 13 μg/kg); “toxic” in the series with M5076 Ovary Sarcoma (M5076, dose 26 μg/kg); 138 in series [5] (setting [8]). Further, the T/C is 192 in [5] (LOX in separate experiments, dose 15 μg/kg); 181 in series [5] (setting [9]); 340 in [5] (setting [10]); 170 in [5] (LOX, dose 3.25 μg/kg); 206 in series [5] (LOX, dose 6.5 μg/kg); 301 in [5] (LOX, dose 13 μg/kg). The T/C is listed as 301 in series [5] (LOX, dose 26 μg/kg); “toxic” in series [5] (LOX, dose 52 μg/kg); 178 in the series on Human Mammary Xenograft (dose 6.25 μg/kg); 137 with Human Mammary Xenograft (dose 13 μg/kg); “Toxic” in the series with Human Mammary Xenograft (dose 26 μg/kg); 300 in [6]. Further, the cures was 17% in [3] (P388, dose 3.25 μg/kg); 17% in series [3] (P388, dose 6.5 μg/kg); 40% in the series on B16 Melanoma (B16, dose 11.11 μg/kg); 17% in series [5] (setting [8]); 33% in [5] (setting [9]); 50% in [5] (setting [10]). The cures in series [5] (LOX, dose 3.25 μg/kg) amounted to 17%; in series [5] (LOX, dose 6.5 μg/kg), 33%; in [5] (LOX, dose 13 μg/kg), 50%; in series [5] (LOX, dose 26 μg/kg), 67%. In addition, the “T/C (Tumor Regression)” value in [7] (MX-1, dose 6.25 μg/kg) stood at 69; in series [7] (MX-1, dose 13 μg/kg) it was 61; in series [7] (MX-1, dose 26 μg/kg), 50; in [7] (MX-1, dose 52 μg/kg), 14.
